Results published in patent publication US20100069325A1, “Pharmaceutical composition for treatment of chronic liver diseases and use thereof” (priority 2008, published 2010).

Key:
[1] = test system: rats having DMN-induced liver fibrosis; assay: Comparison of therapeutic effect between composition and single component on rats having DMN-induced liver fibrosis (Example 5); assay type: in vivo, SD rats; details: DMN model; for ALT (activity of blood serum) / AST (activity of blood serum) / GGT (activity of blood serum) / Hyp (content in liver tissues) / Tbil (content of blood serum): gavage, two weeks of treatment, x ± s; for Degree of liver fibrosis S0 (number of rats) / Degree of liver fibrosis S1 (number of rats) / Degree of liver fibrosis S2 (number of rats) / Degree of liver fibrosis S3 (number of rats) / Degree of liver fibrosis S4 (number of rats): HE and Sirius red staining, S0-S4 staging; for Degree of liver fibrosis S0 (number of rats): stage S0; for Degree of liver fibrosis S1 (number of rats): stage S1; for Degree of liver fibrosis S2 (number of rats): stage S2; for Degree of liver fibrosis S3 (number of rats): stage S3; for Degree of liver fibrosis S4 (number of rats): stage S4
Description: Modeling and grouping: 80 SD rats were randomly divided into a normal group (6) and modeling groups (74). The modeling method was the same as that in Example 1. Four weeks later, 4 rats from the modeling group died. The remaining […] rats were randomly divided into a model group, a Composition A group, groups having a single component of Composition A, a first control group of Fuzhenghuayu capsule, and a second control group of colchicines, each group 10 rats. The administered dose of colchicines was 0.1 mg/Kg, Fuzhenghuayu capsule 4.6 g/Kg. The Composition A group was administered Cordyceps sinensis polysaccharide 60 mg/Kg, Gypenoside 50 mg/Kg, and Amygdaloside 80 mg/Kg. The administered dose of the Gypenoside group was 200 mg/Kg, Amygdaloside 80 mg/Kg, and Cordyceps sinensis polysaccharide 60 mg/Kg. Each group was administered by gavage in a volume of 10 mL/Kg. The model group was administered the same volume of drinking water. After two weeks of treatment, the remaining 61 rats were anesthetized by intraperitoneal injection of 2% pentobarbital sodium. […] Liver tissue was also collected in centrifuge tubes (1.5 mL) for analyzing. Two liver tissues from a hepatic lobule was collected and immersed in a formalin solution for testing.
Observing index and method: the content of hydroxyproline (Hyp) in liver tissues (Jamall's method); liver function of blood serum; liver tissues were stained with HE and Sirius red respectively to determine the degree of liver fibrosis according to the S0-S4 staging criteria in literatures.
The obtained data was expressed as x±s and analysed statistically with software SPSS 12.0 for variance analysis and comparison between groups. The comparison of ranked data between groups was performed by Ridit analysis.

[2] = test system: rats having CCl4-induced liver fibrosis; assay: Comparison of therapeutic effect between composition and single component on rats having CCl4-induced liver fibrosis (Example 6); assay type: in vivo, SD rats; details: CCl4 model; for ALT (activity of blood serum) / AST (activity of blood serum) / Alb (content of blood serum) / GGT (activity of blood serum) / Hyp (content in liver tissues) / Tbil (content of blood serum): SD rats, three weeks of treatment while modeling, x ± s
Description: Modeling and grouping: 86 SD rats were randomly divided into a normal group (6) and modeling groups (80). The modeling method was the same as that in Example 2. Six weeks later, 2 rats from the modeling group died. The remaining 78 rats were randomly divided into a model group (12), a Composition A group (11), groups having a single component of Composition A (each group with 11 rats), a first control group of Fuzhenghuayu capsule (11), and a second control group of colchicine (11). The administered dose was the same as those in Example 5. After three weeks of treatment while modeling, the remaining […] rats were anesthetized by intraperitoneal injection of 2% pentobarbital sodium. […] Liver tissue was also collected in centrifuge tubes (1.5 mL) for analyzing. Two liver tissues from a hepatic lobule was collected and immersed in a formalin solution for testing.
Observing index and method: the same as those in Example 5.
The obtained data was expressed as x±s and analysed statistically with software SPSS 12.0 for variance analysis and comparison between groups.

Row | Compound | effect on DMN-induced liver fibrosis (in words) ([1]; SD rats) | ALT (activity of blood serum) ([1]; SD rats) [U · ml^−1] | AST (activity of blood serum) ([1]; SD rats) [U · ml^−1] | GGT (activity of blood serum) ([1]; SD rats) [U · ml^−1] | Hyp (content in liver tissues) ([1]; SD rats) [μg · g^−1 liver weight] | Tbil (content of blood serum) ([1]; SD rats) [mg/dL] | Degree of liver fibrosis S0 (number of rats) [1] | Degree of liver fibrosis S1 (number of rats) [1] | Degree of liver fibrosis S2 (number of rats) [1] | Degree of liver fibrosis S3 (number of rats) [1] | Degree of liver fibrosis S4 (number of rats) [1] | ALT (activity of blood serum) [2] | AST (activity of blood serum) [2] | Alb (content of blood serum) [2] | GGT (activity of blood serum) [2] [U · ml^−1] | Hyp (content in liver tissues) [2] | Tbil (content of blood serum) [2] [mg/dL] | collagen fibers, Sirius red staining of liver tissues ([1]; compared with the model group, FIG. 1) | collagen fibers, Sirius red staining of liver tissues ([2]; compared with the model group, FIG. 2)
1 | N#C[C@H](O[C@@H]1O[C@H](CO[C@@H]2O[C@H](CO)[C@@H](O)[C@H](O)[C@H]2O)[C@@H](O)[C@H](O)[C@H]1O)c1ccccc1 [Amygdaloside] | can weaken the DMN-induced liver fibrosis | 55.39 ± 15.56 | 69.13 ± 15.74 | 37.01 ± 19.92 | 323 ± 79 | 0.95 ± 0.58 | 0 | 1 | 4 | 3 | 0 | 220.8 ± 47.4 ## U · ml^−1 | 249.1 ± 47.4 U · ml^−1 | 23.67 ± 2.84 g/L | 16.10 ± 6.74 | 403 ± 89 # μg · g^−1 liver weight | 0.85 ± 0.23 | – | –
2 | COc1cc2c(c(OC)c1OC)-c1ccc(OC)c(=O)cc1[C@@H](NC(C)=O)CC2 [Colchicine] | – | 47.55 ± 17.47 | 62.81 ± 13.04 | 31.30 ± 17.21 | 300 ± 47 | 0.86 ± 0.56 | 0 | 1 | 5 | 2 | 0 | 192.6 ± 60.9 # U · ml^−1 | 220.9 ± 60.9 # U · ml^−1 | 24.59 ± 2.11 ## g · l^−1 | 13.87 ± 9.13 | 373 ± 112 μg · g^−1 liver weight | 0.74 ± 0.25 | decreased as compared with the model group | decreased as compared with the model group
